pIC50: −log10 of the molar value.
Legend:
[1] = system: EBC-1 lung cancer cell line; test: High-throughput screening, CellTiter-Glo cell viability assay at 100 nM; assay type: cell-based, human; details: Homo sapiens, EBC-1, HTS, compounds at 100 nM, 72 h, read-out: cytotoxicity expressed in IC50, EBC-1 (results of High throughput screening)
Protocol: (§1) EBC-1 (obtained from JRCB, https://cellbank.nibiohn.go.jp/english/) and H2228 (obtained from ATCC https://www.lgcstandards-atcc.org/) cell lines were maintained according to the instructions provided by JRCB and ATCC in a 5% CO2 humidified incubator maintained at 37° C. temperature. Effect of compounds on cell viability was measured via CellTiter-Glo® luminescent cell viability assay (Promega, Madison, WI, USA). Cells were plated at 1000 cells/well onto a flat-bottomed, white 96 well plate (BRANDplates, cat. no.: 781965). After 24 h, cells were treated for 72 h with the compounds at 100 nM concentration. After the treatment, medium was removed and CellTiter-Glo® reagent was added. Untreated cells were used as control. The luminescence signal was recorded using a microplate reader (BioTek Synergy 2 Multi-Mode Reader, BioTek, Winooski, VT, USA). Cell viability data (% of untreated control cells) was evaluated with Microsoft Excel.

[2] = system: H2228 lung cancer cell line; test: as above; assay type: cell-based, human; details: Homo sapiens, NCI-H2228, HTS, compounds at 100 nM, 72 h, read-out: cytotoxicity expressed in IC50, H2228 (results of High throughput screening)
Protocol: as §1

Row | Compound | pIC50 [1] | pIC50 [2]
1 | [N-]=[N+]=Nc1ccc(CN2CCC3=C(C2)C(=O)N(Cc2ccc(C(F)(F)F)c(F)c2)C2=NCCN23)cc1 [I/114] | < 7.00 | < 7.00
2 | COCCOc1cc2ncnc(Nc3cccc(-c4cn(-c5ccc(CN6C(=O)C7=C(CCN(Cc8ccccc8)C7)N7CCN=C67)cc5)nn4)c3)c2cc1OCCOC [I/123] | < 7.00 | < 7.00
3 | [N-]=[N+]=Nc1ccc(CN2CCC3=C(C2)C(=O)N(Cc2ccc(C(F)(F)F)cc2)C2=NCCN23)cc1 [I/110] | < 7.00 | < 7.00
4 | Cc1ccccc1CN1C(=O)C2=C(CCN(CC3CNC3)C2)N2CCN=C12 [I/92] | < 7.00 | < 7.00
5 | O=C1C2=C(CCN(Cc3cc(F)c(F)c(F)c3)C2)N2CCN=C2N1Cc1ccc(I)cc1 [I/19] | < 7.00 | < 7.00
6 | O=C1C2=C(CCN(Cc3ccc(F)c(F)c3F)C2)N2CCN=C2N1Cc1ccc(I)cc1 [I/18] | < 7.00 | < 7.00
7 | O=C1C2=C(CCN(Cc3ccccc3)C2)N2CCN=C2N1Cc1cccc(I)c1 [I/56] | < 7.00 | < 7.00
8 | COc1cc(CN2C(=O)C3=C(CCN(Cc4cccc(F)c4)C3)N3CCN=C23)cc(OC)c1OC [I/57] | < 7.00 | < 7.00
9 | O=C1C2=C(CCN(Cc3cccc(F)c3)C2)N2CCN=C2N1Cc1ccc([N+](=O)[O-])cc1F [I/49] | > 7.00 | > 7.00
10 | O=C1C2=C(CCN(Cc3cc(F)cc(F)c3)C2)N2CCN=C2N1Cc1ccc([N+](=O)[O-])cc1F [I/50] | > 7.00 | > 7.00
11 | Nc1cccc(CN2CCC3=C(C2)C(=O)N(Cc2ccc(C(F)(F)F)c(F)c2)C2=NCCN23)c1 [I/80] | < 7.00 | < 7.00
12 | O=C1C2=C(CCN(Cc3cc(C(F)(F)F)cc(C(F)(F)F)c3)C2)N2CCN=C2N1Cc1ccc(F)cc1 [I/24] | < 7.00 | < 7.00
13 | Cc1ccccc1CN1C(=O)C2=C(CCN(CC3CCCN3)C2)N2CCN=C12 (centres unmarked) [I/99] | < 7.00 | < 7.00
14 | Nc1cccc(CN2CCC3=C(C2)C(=O)N(Cc2ccc(I)cc2)C2=NCCN23)c1 [I/78] | < 7.00 | < 7.00
15 | O=C1C2=C(CCN(Cc3ccc(F)c(F)c3F)C2)N2CCN=C2N1Cc1ccc(F)cc1 [I/34] | < 7.00 | < 7.00
16 | O=C1C2=C(CCN(Cc3ccc(F)c(F)c3)C2)N2CCN=C2N1Cc1ccc(I)cc1 [I/17] | < 7.00 | < 7.00
17 | O=C1C2=C(CCN(CC3CCNC3)C2)N2CCN=C2N1Cc1ccc(F)cc1 (centres unmarked) [I/98] | < 7.00 | < 7.00
18 | NCc1cccc(CN2CCC3=C(C2)C(=O)N(Cc2ccc(C(F)(F)F)cc2)C2=NCCN23)c1 [I/69] | < 7.00 | < 7.00
19 | O=C1C2=C(CCN(Cc3cc(C(F)(F)F)cc(C(F)(F)F)c3)C2)N2CCN=C2N1Cc1ccc(I)cc1 [I/16] | < 7.00 | < 7.00
20 | Nc1ccc(CN2CCC3=C(C2)C(=O)N(CC2CCNCC2)C2=NCCN23)cc1 [I/93] | < 7.00 | < 7.00
21 | Cc1ccccc1CN1C(=O)C2=C(CCN(Cc3ccc(N)cc3)C2)N2CCN=C12 [I/74] | < 7.00 | < 7.00
22 | [N-]=[N+]=Nc1ccc(CN2CCC3=C(C2)C(=O)N(CC2CCNCC2)C2=NCCN23)cc1 [I/119] | < 7.00 | < 7.00
23 | [N-]=[N+]=Nc1ccc(CN2C(=O)C3=C(CCN(Cc4cccc(F)c4)C3)N3CCN=C23)cc1 [I/106] | ~7.00 | < 7.00
24 | [N-]=[N+]=Nc1ccc(CN2CCC3=C(C2)C(=O)N(Cc2cccc(F)c2)C2=NCCN23)cc1 [I/108] | < 7.00 | < 7.00
25 | O=C1C2=C(CCN(Cc3ccccc3)C2)N2CCN=C2N1Cc1ccc(Br)cc1 [I/41] | < 7.00 | > 7.00

Row | Compound | pIC50 [1] | pIC50 [2]
26 | O=C1C2=C(CCN(Cc3cc(C(F)(F)F)cc(C(F)(F)F)c3)C2)N2CCN=C2N1Cc1ccc(C(F)(F)F)cc1 [I/21] | < 7.00 | < 7.00
27 | Cc1ccccc1CN1C(=O)C2=C(CCN(Cc3cccc(C(F)(F)F)c3)C2)N2CCN=C12 [I/13] | < 7.00 | < 7.00
28 | Nc1ccc(CN2CCC3=C(C2)C(=O)N(CC2CNC2)C2=NCCN23)cc1 [I/91] | < 7.00 | < 7.00
29 | [N-]=[N+]=Nc1ccc(CN2CCC3=C(C2)C(=O)N(CC2CNC2)C2=NCCN23)cc1 [I/118] | < 7.00 | < 7.00
30 | O=C1C2=C(CCN(Cc3cccc(F)c3)C2)N2CCN=C2N1Cc1ccc(Br)cc1 [I/4, reference compound] | > 7.00 | > 7.00
31 | Cc1ccccc1CN1C(=O)C2=C(CCN(CC3CCNC3)C2)N2CCN=C12 (centres unmarked) [I/97] | < 7.00 | < 7.00
32 | COc1cc(CN2C(=O)C3=C(CCN(Cc4ccccc4)C3)N3CCN=C23)cc(OC)c1OC [I/51] | < 7.00 | < 7.00
33 | Cc1ccccc1CN1C(=O)C2=C(CCN(Cc3ccc(F)cc3C(F)(F)F)C2)N2CCN=C12 [I/12] | < 7.00 | < 7.00
34 | NCc1ccc(CN2C(=O)C3=C(CCN(Cc4ccccc4)C3)N3CCN=C23)cc1 [I/62] | < 7.00 | < 7.00
35 | O=C1C2=C(CCN(Cc3cccc(C(F)(F)F)c3)C2)N2CCN=C2N1Cc1ccc(C(F)(F)F)c(F)c1 [I/33] | < 7.00 | < 7.00
36 | COCCOc1cc2ncnc(Nc3cccc(-c4cn(-c5ccc(CN6CCC7=C(C6)C(=O)N(Cc6ccccc6C)C6=NCCN67)cc5)nn4)c3)c2cc1OCCOC [I/122] | < 7.00 | < 7.00
37 | O=C1C2=C(CCN(Cc3cccc(C(F)(F)F)c3)C2)N2CCN=C2N1Cc1ccc(F)cc1 [I/32] | < 7.00 | < 7.00
38 | Nc1ccc(CN2C(=O)C3=C(CCN(Cc4cc(F)cc(F)c4)C3)N3CCN=C23)cc1 [I/88] | < 7.00 | < 7.00
39 | O=C1C2=C(CCN(Cc3cccc(C(F)(F)F)c3)C2)N2CCN=C2N1Cc1ccc(I)cc1 [I/15A] | < 7.00 | < 7.00
40 | O=C1C2=C(CCN(Cc3ccc(F)c(F)c3)C2)N2CCN=C2N1Cc1ccc(F)cc1 [I/23] | < 7.00 | < 7.00
41 | O=C1C2=C(CCN(CC3CCNCC3)C2)N2CCN=C2N1Cc1ccc(F)cc1 [I/95] | < 7.00 | < 7.00
42 | Nc1cccc(CN2C(=O)C3=C(CCN(Cc4cccc(F)c4)C3)N3CCN=C23)c1 [I/76] | < 7.00 | < 7.00
43 | O=C1C2=C(CCN(Cc3cc(F)cc(F)c3)C2)N2CCN=C2N1Cc1ccc(I)cc1 [I/38] | > 7.00 | > 7.00
44 | Nc1ccc(CN2CCC3=C(C2)C(=O)N(Cc2cccc(F)c2)C2=NCCN23)cc1 [I/83] | < 7.00 | < 7.00
45 | [N-]=[N+]=Nc1cccc(CN2C(=O)C3=C(CCN(Cc4cccc(F)c4)C3)N3CCN=C23)c1 [I/105] | > 7.00 | ~7.00
46 | Nc1ccc(CN2CCC3=C(C2)C(=O)N(Cc2ccc(C(F)(F)F)c(F)c2)C2=NCCN23)cc1 [I/82] | < 7.00 | < 7.00
47 | O=C1C2=C(CCN(Cc3cc(F)c(F)c(F)c3)C2)N2CCN=C2N1Cc1ccc(F)cc1 [I/25] | < 7.00 | < 7.00
48 | [N-]=[N+]=Nc1cccc(CN2C(=O)C3=C(CCN(Cc4ccccc4)C3)N3CCN=C23)c1 [I/102] | < 7.00 | < 7.00
49 | Nc1ccc(CN2CCC3=C(C2)C(=O)N(Cc2ccc(N)cc2)C2=NCCN23)cc1 [I/85] | < 7.00 | < 7.00
